Results as given in patent US10400263B2, “Tripeptide rhodamine compound” (Kingston Uninversity Higher Education Corporation, priority 2012, dated 2019).

What was measured:
MRSA and MSSA = experiment: LGX staphylocoagulase fluorescence assay, MRSA and MSSA together; format: cell-based, Staphylococcus aureus
Description: (§1) Each sample was rinsed liberally in sterile 1×PBS and varying concentrations of bacterial suspension from 10^0-10^6 were generated by serial dilution in 1×PBS. Additionally, bacterial cultures were furthermore maintained on nutrient agar to assess the coagulase status of the isolate.
(§2) To determine the effects of varying bacterial concentrations with respect to bacterial strains and concentrations of the compounds according to the present invention on staphylocoagulase activity, 100 and 50 μM solutions containing LGX were prepared in 1×PBS with the addition of 0.05 M Tris Buffer and 0.1 M NaCl to maintain a pH of 8.5 using LGX dissolved in MeOH so that final concentration of methanol was no more than 2.5%. Furthermore, an appropriate concentration (100 μM and 50 μM, respectively) of human prothrombin was added to the solution.
(§3) The plate reader used was a Fluostar Optima, and the plates used were Nunclon Surface 96 well plates. Positive controls for each experiment was a strain of MRSA, and the negative control for each experiment was a strain of E. coli, both of which were picked at random to ensure there was no bias within the data. A 1:1 ratio of the LGX solution with PBS was also assayed as “LGX alone” sample, which has been designated as a black line on the graphs below. n=3 cultures were assayed in each case.
(§4) Clinical isolates of Methicillin Resistant Staphylococcus Aureus (MRSA), Methicillin Sensitive Staphylococcus Aureus (MSSA), Staphylococcus Epidermidis, Eschericia coli and other staphyloccal species were cultured on nutrient agar prior to being grown overnight in nutrient broth under shaking conditions at 37° C. Each sample was rinsed liberally in sterile 1×PBS and varying concentrations of bacterial suspension from […] were generated by serial dilution in 1×PBS. Additionally, bacterial cultures were furthermore maintained on nutrient agar to assess the coagulase status of the isolate.
(§5) To determine the effects of varying bacterial concentrations with respect to bacterial strains and LGX concentrations on staphylocoagulase activity, 100 and 50 μM solutions of LGX were prepared in 1×PBS with the addition of 0.05 M Tris Buffer and 0.1 M NaCl to maintain a pH of 8.5 using LGX dissolved in MeOH so that final concentration of methanol was no more than 2.5%. Furthermore, an appropriate concentration (100 μM and 50 μM, respectively) of human prothrombin was added to the solution. 90 μl of LGX solution in addition to each respective bacterial isolate at varying concentrations was added to a microtitre plate. […] The plate reader used was a Fluostar Optima, and the plates used were Nunclon Surface 96 well plates.

S. hominus = experiment: LGX system, S. hominus; format: cell-based
Description: as §1
(§6) To determine the effects of varying bacterial concentrations with respect to bacterial strains and concentrations of the compounds according to the present invention on staphylocoagulase activity, 100 and 50 μM solutions containing LGX were prepared in 1×PBS with the addition of 0.05 M Tris Buffer and 0.1 M NaCl to maintain a pH of 8.5 using LGX dissolved in MeOH so that final concentration of methanol was no more than 2.5%. […]
(§7) The plate reader used was a Fluostar Optima, and the plates used were Nunclon Surface 96 well plates. […]
(§8) To determine the effects of varying bacterial concentrations with respect to bacterial strains and LGX concentrations on staphylocoagulase activity, 100 and 50 μM solutions of LGX were prepared in 1×PBS with the addition of 0.05 M Tris Buffer and 0.1 M NaCl to maintain a pH of 8.5 using LGX dissolved in MeOH so that final concentration of methanol was no more than 2.5%. […] The plate reader used was a Fluostar Optima, and the plates used were Nunclon Surface 96 well plates.

S. epidermidis = experiment: LGX staphylocoagulase fluorescence assay, S. epidermidis; format: cell-based, Staphylococcus Epidermidis; conditions: for fluorescence over the 6 hour time period: S. epidermidis, high and low concentrations
Description: as §1, §2
The plate reader used was a Fluostar Optima, and the plates used were Nunclon Surface 96 well plates. Positive controls for each experiment was a strain of MRSA, and the negative control for each experiment was a strain of E. coli, both of which were picked at random to ensure there was no bias within the data. A 1:1 ratio of the LGX solution with PBS was also assayed as “LGX alone” sample, which has been designated as a black line on the graphs below. n=3 cultures were assayed in each case. […]
as §8

S. warneri = experiment: LGX system, S. warneri; format: cell-based
Description: as §1, §6, §7, §8

E. coli = experiment: LGX staphylocoagulase fluorescence assay, E. coli strains; format: cell-based; conditions: for fluorescence over the 6 hour time period: high and low concentrations
Description: as §1, §2, §3, §4, §5

S. aureus = experiment: LGX test on volunteers' nasal swabs with prothrombin or prethrombin; format: cell-based, Staphylococcus aureus; conditions: for samples tested positive for S. aureus: threshold 20,000 RFU
Description: A population of 113 volunteers were administered a “set” of swabs, comprising two swabs that were pre-moistened with sterile H2O, and one swab that was dry. Each volunteer swabbed the internal periphery of each nostril with the two moistened swabs. Each volunteer then subsequently swabbed the internal periphery of each nostril with the dry swab. The swabs were then placed into amies transport medium to maintain bacterial cell viability. Each sample was anonymous and the study was randomised.
A 100 μL solution of 100 μM LGX with either 1×prothrombin or 1×prethrombin (buffered to pH 8.5 with Tris base and NaCl), was pipetted into sterile 1.5 mL eppendorf tubes. Each moistened swab was placed into the eppendorf tube, and cut to a length to facilitate closure of the tube, with a pair of sterilised scissors. Each tube was subjected to vigorous agitation and the swab tips were removed with sterile forceps. The remaining solution was subsequently pipetted into a microtitre plate (Nunclon 96 well plates). The relative fluorescence of the sample was then recorded every fifteen minutes over a six hour time period (λex.=488 nm and λem=525 nm).
In tandem with this, the remaining swabs (in amies transport medium) were transferred onto pre warmed mannitol salt agar (chromogenic agar for the determination of S. aureus) plates and incubated for up to 48 hours at 37° C. The colour change and colony appearance of the bacteria was noted. […] Following this, 20 separate, discrete colonies were sub-cultured onto nutrient agar and also onto Baird Parker Agar (agar for the determination of S. aureus and S. epidermidis). After an overnight culture at 37° C., colony morphology and appearance was observed (S. aureus colonies are large with a pale “halo” surrounding the colonies, S. epidermidis colonies are small and black).
Additionally, isolates from the nasal swabs cultured on nutrient agar were tested for coagulase activity using a staphylase test kit (oxoid). Loopfuls of bacteria were assayed based on coagulase mediated clumping of fibrinogen-sensitised ovine blood cells.
A final test to determine the identification of the bacteria within each sample, a gram stain was performed. This is based on the presence of peptidoglycan in gram positive cells and their ability to retain crystal violet. S. aureus is a gram positive bacterium. Briefly, a drop of sterile dH2O was placed on a microscope slide and a small amount of culture was applied to this and allowed to air dry. The slide was passed though a flame to fix the bacteria. Crystal Violet was applied to each slide, followed by washing with dH2O. Iodine was then added to the slides, followed by washing with dH2O and subsequent decolourisation with ethanol and another wash with dH2O. Each slide was counterstained with carbol fushchin (for gram negative), rinsed again and allowed to dry.
Each swab sample was examined for the presence of S. aureus based on the above identification techniques, and termed “positive” or “negative”. The results were compared to the finding of the assay of the current invention (LGX test), with either prethrombin or prothrombin, and plotted on a bar chart as a function of relative fluorescence units.

[1] = test system: coagulase negative staphylococci; experiment: LGX staphylocoagulase fluorescence assay, coagulase negative staphylococci panel; format: cell-based
Description: as §1, §2, §3

M. luteus = experiment: LGX system, M. luteus; format: cell-based
Description: as §1, §6, §7, §8

SMILES: CC(C)[C@H](NC(=O)OC(C)(C)C)C(=O)N1CCC[C@H]1C(=O)N[C@@H](CCCNC(=N)N)C(=O)Nc1ccc2c(c1)Oc1cc(NC(=O)[C@H](CCCNC(=N)N)NC(=O)[C@@H]3CCCN3C(=O)[C@@H](NC(=O)OC(C)(C)C)C(C)C)ccc1C21OC(=O)c2ccccc21 (stereo partly drawn) [LGX, Rho-(Arg-Pro-Val-NHBoc)2]
- isolates failed to reach a fluorescence reading of 20,000 within 30 minutes (MRSA and MSSA; 50 μM LGX, 10^2 cell concentration of MRSA and MSSA): 20%
- isolates failed to reach a fluorescence reading of 20,000 within 30 minutes (MRSA and MSSA; 50 μM LGX, 10^3 cell concentration of MRSA and MSSA): 5%
- time for fluorescence to reach a maximum (MRSA and MSSA; 50 μM LGX, MRSA and MSSA 10^5, FIG. 13): approximately 3 hours
- fluorescence reading reached (almost instantaneous reaction) (MRSA and MSSA; 50 μM LGX, MRSA and MSSA 10^6, FIG. 13): 65,000 RFU
- samples above 20,000 fluorescence units after 1 hour (MRSA and MSSA; 50 μM LGX, all concentrations of bacteria, MRSA and MSSA): more than 80%
- samples with a fluorescence reading greater than 20,000 within 30 minutes (MRSA and MSSA; 100 μM LGX, 10^3 cell concentration and above): 100%
- fluorescence reading reached (almost instantaneous reaction) (MRSA and MSSA; 100 μM LGX, MRSA and MSSA 10^4 and 10^3, and MSSA 10^2, FIG. 14): 65,000 RFU
- response compared with 100 and 500 μM coumarin system (MRSA and MSSA; 100 μM LGX, MRSA and MSSA at 10^2, FIG. 12): superior response in terms of selectivity and speed
- lowest bacterial concentration at which presence of bacteria is detected (MRSA and MSSA; no culturing, fluorescence 525 nm (ex 488 nm)): 10^2
- sensitivity advantage over N-t-BOC-val-pro-arg-7-amido-4-methylcoumarin (MRSA and MSSA; response at 10^2 Staphylococcus aureus units, 525 nm (ex 488 nm)): several orders of magnitude (10^4 bacteria)
- sensitivity relative to the existing commercial dye system (MRSA and MSSA; staphylothrombin assay for detection of MRSA and MSSA, estimate): 10 times
- LGX SYSTEM (S. hominus): −
- fluorescence over the 6 hour time period (S. epidermidis; 50 μM LGX, FIG. 13): no increase in fluorescence was observed
- fluorescence over the 6 hour time period (S. epidermidis; 100 μM LGX, FIG. 14): no increase in fluorescence was observed
- LGX SYSTEM (S. epidermidis; S. EPIDERMIDIS): −
- LGX SYSTEM (S. warneri): −
- fluorescence over the duration of the experiment (E. coli; 50 μM LGX, E. coli strains 10^6, 10^5, 10^3 and 10^2, FIG. 6): remain consistently low
- fluorescence over the 6 hour time period (E. coli; 50 μM LGX, E. coli, FIG. 13): no increase in fluorescence was observed
- samples above 20,000 fluorescence units after 1 hour (E. coli; 50 μM LGX, all concentrations of bacteria, E. coli): 0%
- fluorescence response within 1 hour (E. coli; 50 μM or 100 μM LGX, E. coli): ≤ 5000 fluorescence units
- fluorescence across the 6 hour time period (E. coli; 100 μM LGX, E. coli strains, FIG. 7): remained consistently low
- fluorescence over the 6 hour time period (E. coli; 100 μM LGX, E. coli, FIG. 14): no increase in fluorescence was observed
- LGX SYSTEM (E. coli; E. COLI): −
- time in which S. aureus was efficiently detected (S. aureus; 100 μM LGX with 1×prethrombin): 15 min
- samples tested positive for S. aureus (S. aureus; 100 μM LGX with 1×prethrombin, 15 minutes): approximately 49 samples
- samples tested positive for S. aureus (S. aureus; 100 μM LGX with 1×prethrombin, 60 minutes): approximately 49 samples
- time in which S. aureus was efficiently detected (S. aureus; 100 μM LGX with 1×prothrombin): 15 min
- samples tested positive for S. aureus (S. aureus; 100 μM LGX with 1×prothrombin, 15 minutes, 113 volunteers): approximately 29 samples
- samples tested positive for S. aureus (S. aureus; 100 μM LGX with 1×prothrombin, 60 minutes): approximately 34 samples
- samples above 20,000 fluorescence units after 1 hour ([1]; 50 μM LGX, all concentrations of bacteria, coagulase negative staphylocci): 0%
- fluorescence over the duration of the experiment ([1]; 50 μM LGX, coagulase negative strains 10^6, 10^5, 10^3 and 10^2, FIG. 8): remain consistently low
- fluorescence response within 1 hour ([1]; 50 μM or 100 μM LGX, coagulase negative staphylococci): ≤ 5000 fluorescence units
- fluorescence across the 6 hour time period ([1]; 100 μM LGX, coagulase negative strains, FIG. 9): remained consistently low
- LGX SYSTEM (M. luteus): −
- coagulase result with LGX system (M. luteus): negative
